Assay results reported in patent US20230085307A1, “PYRIDAZINONE COMPOUND AND HERBICIDE” (NISSAN CHEMICAL CORPORATION, priority 2019, published 2023).

Assays:
late watergrass = assay: Test Example 1: herbicidal activity, application before weed generation under submerged conditions (Table 16, symbol A); assay type: in vivo, late watergrass (Echinochloa oryzicola); settings: 320 g/ha applied herbicide
Procedure, shortened: (§1)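 Emulsion formulation, water-diluted to set dose, was put onto the flooded surface (4 cm depth, alluvial soil) the same day weeds were sown and 2.5-leaf rice transplanted. After 3 weeks at 25-30 °C under glass, each species was rated 0 (≤5% kill) to 5 (≥90% kill).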

Japanese bulrush = assay: Test Example 1: herbicidal activity, application before weed generation under submerged conditions (Table 16, symbol B); assay type: in vivo, Japanese bulrush (Schoenoplectus juncoides); settings: 320 g/ha applied herbicide
Procedure, shortened: as §1

oval-leafed pondweed = assay: Test Example 1: herbicidal activity, application before weed generation under submerged conditions (Table 16, symbol C); assay type: in vivo, oval-leafed pondweed (Monochoria vaginalis); settings: 320 g/ha applied herbicide
Procedure, shortened: as §1

barnyard grass [1] = assay: Test Example 3: herbicidal effect by foliage application, Wagner pot (Table 18, symbol H); assay type: in vivo, barnyard grass (Echinochloa crus-galli); settings: amount of applied herbicide 320 g/ha
Procedure, shortened: (§2)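 Plants were sown in alluvial soil held under 0.1–0.5 cm standing water and grown 14 days in a greenhouse at 25–30 °C. An emulsifiable formulation, water-diluted to the set dose, was then sprayed onto the foliage, and effects were scored three weeks later using previously defined criteria.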

Chinese sprangletop = assay: Test Example 3: herbicidal effect by foliage application, Wagner pot (Table 18, symbol D); assay type: in vivo, chinese sprangletop (Leptochloa chinensis); settings: amount of applied herbicide 320 g/ha
Procedure, shortened: as §2

rice flat sedge = assay: Test Example 3: herbicidal effect by foliage application, Wagner pot (Table 18, symbol E); assay type: in vivo, rice flat sedge (Cyperus iria); settings: amount of applied herbicide 320 g/ha
Procedure, shortened: as §2

southern crabgrass [2] = assay: Test Example 4: herbicidal effect by soil treatment (Table 19, symbol F); assay type: in vivo, southern crabgrass (Digitaria ciliaris); settings: amount of applied herbicide 320 g/ha
Procedure, shortened: (§3)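 Herbicidal effect was rated 3 weeks after treatment, using the scoring criteria of an earlier test. The compound, formulated as an emulsion and diluted in water to a set herbicide amount, had been sprayed uniformly on soil over freshly sown seeds. Growth took place in a greenhouse at 25° C. to 30° C.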

green foxtail [3] = assay: Test Example 4: herbicidal effect by soil treatment (Table 19, symbol G); assay type: in vivo, green foxtail (Setaria viridis); settings: amount of applied herbicide 320 g/ha
Procedure, shortened: as §3

barnyard grass [4] = assay: Test Example 4: herbicidal effect by soil treatment (Table 19, symbol H); assay type: in vivo, barnyard grass (Echinochloa crus-galli); settings: amount of applied herbicide 320 g/ha
Procedure, shortened: as §3

wild oat [5] = assay: Test Example 4: herbicidal effect by soil treatment (Table 19, symbol I); assay type: in vivo, wild oat (Avena fatua); settings: amount of applied herbicide 320 g/ha
Procedure, shortened: as §3

blackgrass [6] = assay: Test Example 4: herbicidal effect by soil treatment (Table 19, symbol J); assay type: in vivo, blackgrass (Alopecurus myosuroides); settings: amount of applied herbicide 320 g/ha
Procedure, shortened: as §3

Italian ryegrass [7] = assay: Test Example 4: herbicidal effect by soil treatment (Table 19, symbol K); assay type: in vivo, Italian ryegrass (Lolium multiflorum); settings: amount of applied herbicide 320 g/ha
Procedure, shortened: as §3

windgrass [8] = assay: Test Example 4: herbicidal effect by soil treatment (Table 19, symbol L); assay type: in vivo, windgrass (Apera spica-venti); settings: amount of applied herbicide 320 g/ha
Procedure, shortened: as §3

velvetleaf [9] = assay: Test Example 4: herbicidal effect by soil treatment (Table 19, symbol M); assay type: in vivo, velvetleaf (Abutilon theophrasti); settings: amount of applied herbicide 320 g/ha
Procedure, shortened: as §3

redroot pigweed [10] = assay: Test Example 4: herbicidal effect by soil treatment (Table 19, symbol N); assay type: in vivo, redroot pigweed (Amaranthus retroflexus); settings: amount of applied herbicide 320 g/ha
Procedure, shortened: as §3

lambsquarters [11] = assay: Test Example 4: herbicidal effect by soil treatment (Table 19, symbol O); assay type: in vivo, lambsquarters (Chenopodium album); settings: amount of applied herbicide 320 g/ha
Procedure, shortened: as §3

chickweed [12] = assay: Test Example 4: herbicidal effect by soil treatment (Table 19, symbol P); assay type: in vivo, common chickweed (Stellaria media); settings: amount of applied herbicide 320 g/ha
Procedure, shortened: as §3

false cleavers = assay: Test Example 4: herbicidal effect by soil treatment (Table 19, symbol Q); assay type: in vivo, false cleavers (Galium spurium); settings: amount of applied herbicide 320 g/ha
Procedure, shortened: as §3

persian speedwell [13] = assay: Test Example 4: herbicidal effect by soil treatment (Table 19, symbol R); assay type: in vivo, Persian speedwell (Veronica persica); settings: amount of applied herbicide 320 g/ha
Procedure, shortened: as §3

southern crabgrass [14] = assay: Test Example 5: herbicidal effect by foliage application, plastic box (Table 20, symbol F); assay type: in vivo, southern crabgrass (Digitaria ciliaris); settings: foliage application, 320 g/ha, evaluated three weeks after application
Procedure, shortened: (§4)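 Foliar spray test: emulsion formulation diluted in water to a set application rate, sprayed onto 14-day-old plants raised in diluvial soil at 25° C to 30° C under glass. Both herbicidal effect and crop effect rated visually three weeks later.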

green foxtail [15] = assay: Test Example 5: herbicidal effect by foliage application, plastic box (Table 20, symbol G); assay type: in vivo, green foxtail (Setaria viridis); settings: foliage application, 320 g/ha, evaluated three weeks after application
Procedure, shortened: as §4

barnyard grass [16] = assay: Test Example 5: herbicidal effect by foliage application, plastic box (Table 20, symbol H); assay type: in vivo, barnyard grass (Echinochloa crus-galli); settings: foliage application, 320 g/ha, evaluated three weeks after application
Procedure, shortened: as §4

wild oat [17] = assay: Test Example 5: herbicidal effect by foliage application, plastic box (Table 20, symbol I); assay type: in vivo, wild oat (Avena fatua); settings: foliage application, 320 g/ha, evaluated three weeks after application
Procedure, shortened: as §4

blackgrass [18] = assay: Test Example 5: herbicidal effect by foliage application, plastic box (Table 20, symbol J); assay type: in vivo, blackgrass (Alopecurus myosuroides); settings: foliage application, 320 g/ha, evaluated three weeks after application
Procedure, shortened: as §4

Italian ryegrass [19] = assay: Test Example 5: herbicidal effect by foliage application, plastic box (Table 20, symbol K); assay type: in vivo, Italian ryegrass (Lolium multiflorum); settings: foliage application, 320 g/ha, evaluated three weeks after application
Procedure, shortened: as §4

windgrass [20] = assay: Test Example 5: herbicidal effect by foliage application, plastic box (Table 20, symbol L); assay type: in vivo, windgrass (Apera spica-venti); settings: foliage application, 320 g/ha, evaluated three weeks after application
Procedure, shortened: as §4

velvetleaf [21] = assay: Test Example 5: herbicidal effect by foliage application, plastic box (Table 20, symbol M); assay type: in vivo, velvetleaf (Abutilon theophrasti); settings: foliage application, 320 g/ha, evaluated three weeks after application
Procedure, shortened: as §4

redroot pigweed [22] = assay: Test Example 5: herbicidal effect by foliage application, plastic box (Table 20, symbol N); assay type: in vivo, redroot pigweed (Amaranthus retroflexus); settings: foliage application, 320 g/ha, evaluated three weeks after application
Procedure, shortened: as §4

lambsquarters [23] = assay: Test Example 5: herbicidal effect by foliage application, plastic box (Table 20, symbol O); assay type: in vivo, lambsquarters (Chenopodium album); settings: foliage application, 320 g/ha, evaluated three weeks after application
Procedure, shortened: as §4

chickweed [24] = assay: Test Example 5: herbicidal effect by foliage application, plastic box (Table 20, symbol P); assay type: in vivo, common chickweed (Stellaria media); settings: foliage application, 320 g/ha, evaluated three weeks after application
Procedure, shortened: as §4

persian speedwell [25] = assay: Test Example 5: herbicidal effect by foliage application, plastic box (Table 20, symbol R); assay type: in vivo, Persian speedwell (Veronica persica); settings: foliage application, 320 g/ha, evaluated three weeks after application
Procedure, shortened: as §4

SMILES	Herbicidal effect on A: late watergrass (grade 0-5) (late watergrass)	Herbicidal effect on B: Japanese bulrush (grade 0-5) (Japanese bulrush)	Herbicidal effect on C: oval-leafed pondweed (grade 0-5) (oval-leafed pondweed)	herbicidal effect on H: barnyard grass (barnyard grass [1])	herbicidal effect on D: Chinese sprangletop (Chinese sprangletop)	herbicidal effect on E: rice flat sedge (rice flat sedge)	F: southern crabgrass, herbicidal effect rating (southern crabgrass [2])	G: green foxtail, herbicidal effect rating (green foxtail [3])	H: barnyard grass, herbicidal effect rating (barnyard grass [4])	I: wild oat, herbicidal effect rating (wild oat [5])	J: blackgrass, herbicidal effect rating (blackgrass [6])	K: Italian ryegrass, herbicidal effect rating (Italian ryegrass [7])	L: windgrass, herbicidal effect rating (windgrass [8])	M: velvetleaf, herbicidal effect rating (velvetleaf [9])	N: redroot pigweed, herbicidal effect rating (redroot pigweed [10])	O: lambsquarters, herbicidal effect rating (lambsquarters [11])	P: chickweed, herbicidal effect rating (chickweed [12])	Q: false cleavers, herbicidal effect rating (false cleavers)	R: persian speedwell, herbicidal effect rating (persian speedwell [13])	herbicidal effect on F: southern crabgrass (criteria 0-5) (southern crabgrass [14])	also measured
CCCCOc1cccc(-c2sc3ccc(F)cc3c2-c2c(O)c(C)nn(C)c2=O)c1 [2-219]	3 (Herbicidal rate of 40% or more and less than 70%)	0 (Herbicidal rate of 5% or less (almost no effect))	0 (Herbicidal rate of 5% or less (almost no effect))	5 (Herbicidal rate of 90% or more (almost completely withered))	3 (Herbicidal rate of 40% or more and less than 70%)	3 (Herbicidal rate of 40% or more and less than 70%)	4 (Herbicidal rate of 70% or more and less than 90%)	4 (Herbicidal rate of 70% or more and less than 90%)	5 (Herbicidal rate of 90% or more (almost completely withered))	0 (Herbicidal rate of 5% or less (almost no effect))	0 (Herbicidal rate of 5% or less (almost no effect))	0 (Herbicidal rate of 5% or less (almost no effect))	0 (Herbicidal rate of 5% or less (almost no effect))	1 (Herbicidal rate of 5% or more and less than 20%)	3 (Herbicidal rate of 40% or more and less than 70%)	1 (Herbicidal rate of 5% or more and less than 20%)	0 (Herbicidal rate of 5% or less (almost no effect))	0 (Herbicidal rate of 5% or less (almost no effect))	3 (Herbicidal rate of 40% or more and less than 70%)	4 (Herbicidal rate of 70% or more and less than 90%)	herbicidal effect on G: green foxtail (criteria 0-5) (green foxtail [15]): 5 (Herbicidal rate of 90% or more (almost completely withered)); herbicidal effect on H: barnyard grass (criteria 0-5) (barnyard grass [16]): 4 (Herbicidal rate of 70% or more and less than 90%); herbicidal effect on I: wild oat (criteria 0-5) (wild oat [17]): 0 (Herbicidal rate of 5% or less (almost no effect)); herbicidal effect on J: blackgrass (criteria 0-5) (blackgrass [18]): 0 (Herbicidal rate of 5% or less (almost no effect)); herbicidal effect on K: Italian ryegrass (criteria 0-5) (Italian ryegrass [19]): 0 (Herbicidal rate of 5% or less (almost no effect)); herbicidal effect on L: windgrass (criteria 0-5) (windgrass [20]): 0 (Herbicidal rate of 5% or less (almost no effect)); herbicidal effect on M: velvetleaf (criteria 0-5) (velvetleaf [21]): 2 (Herbicidal rate of 20% or more and less than 40%); herbicidal effect on N: redroot pigweed (criteria 0-5) (redroot pigweed [22]): 5 (Herbicidal rate of 90% or more (almost completely withered)); herbicidal effect on O: lambsquarters (criteria 0-5) (lambsquarters [23]): 3 (Herbicidal rate of 40% or more and less than 70%); herbicidal effect on P: chickweed (criteria 0-5) (chickweed [24]): 5 (Herbicidal rate of 90% or more (almost completely withered)); herbicidal effect on R: persian speedwell (criteria 0-5) (persian speedwell [25]): 5 (Herbicidal rate of 90% or more (almost completely withered))
COCC(=O)Nc1ccc2sc(-c3ccc(F)cc3OC)c(-c3c(O)c(C)nn(C)c3=O)c2c1 [2-179]	3 (Herbicidal rate of 40% or more and less than 70%)	0 (Herbicidal rate of 5% or less (almost no effect))	0 (Herbicidal rate of 5% or less (almost no effect))	2 (Herbicidal rate of 20% or more and less than 40%)	2 (Herbicidal rate of 20% or more and less than 40%)	4 (Herbicidal rate of 70% or more and less than 90%)	0 (Herbicidal rate of 5% or less (almost no effect))	0 (Herbicidal rate of 5% or less (almost no effect))	0 (Herbicidal rate of 5% or less (almost no effect))	0 (Herbicidal rate of 5% or less (almost no effect))	0 (Herbicidal rate of 5% or less (almost no effect))	0 (Herbicidal rate of 5% or less (almost no effect))	0 (Herbicidal rate of 5% or less (almost no effect))	0 (Herbicidal rate of 5% or less (almost no effect))	2 (Herbicidal rate of 20% or more and less than 40%)	3 (Herbicidal rate of 40% or more and less than 70%)	3 (Herbicidal rate of 40% or more and less than 70%)	0 (Herbicidal rate of 5% or less (almost no effect))	3 (Herbicidal rate of 40% or more and less than 70%)	0 (Herbicidal rate of 5% or less (almost no effect))	herbicidal effect on G: green foxtail (criteria 0-5) (green foxtail [15]): 0 (Herbicidal rate of 5% or less (almost no effect)); herbicidal effect on H: barnyard grass (criteria 0-5) (barnyard grass [16]): 0 (Herbicidal rate of 5% or less (almost no effect)); herbicidal effect on I: wild oat (criteria 0-5) (wild oat [17]): 0 (Herbicidal rate of 5% or less (almost no effect)); herbicidal effect on J: blackgrass (criteria 0-5) (blackgrass [18]): 0 (Herbicidal rate of 5% or less (almost no effect)); herbicidal effect on K: Italian ryegrass (criteria 0-5) (Italian ryegrass [19]): 0 (Herbicidal rate of 5% or less (almost no effect)); herbicidal effect on L: windgrass (criteria 0-5) (windgrass [20]): 0 (Herbicidal rate of 5% or less (almost no effect)); herbicidal effect on M: velvetleaf (criteria 0-5) (velvetleaf [21]): 1 (Herbicidal rate of 5% or more and less than 20%); herbicidal effect on N: redroot pigweed (criteria 0-5) (redroot pigweed [22]): 3 (Herbicidal rate of 40% or more and less than 70%); herbicidal effect on O: lambsquarters (criteria 0-5) (lambsquarters [23]): 2 (Herbicidal rate of 20% or more and less than 40%); herbicidal effect on P: chickweed (criteria 0-5) (chickweed [24]): 5 (Herbicidal rate of 90% or more (almost completely withered)); herbicidal effect on R: persian speedwell (criteria 0-5) (persian speedwell [25]): 3 (Herbicidal rate of 40% or more and less than 70%)
